Source: patent US20250327793A1, “METHODS OF IDENTIFYING COMPOUNDS THAT MODULATE LAUNDRY MALODOR, MOLDY MALODOR, OR SWEAT MALODOR” (Firmenich SA, priority 2017, published 2025)
Structures can show the parent of a compound that is named as a salt.

What was measured:
[1] = molecular target: T1, OR51E1 olfactory receptor (Homo sapiens, UniProt Q8TCB6, K299R); test: Butyric acid olfactory receptor antagonist cell-based inhibitory dose-response assay
T1 construct: expressed in transfected cells
T1 sequence (Q8TCB6 2-318 K299R limits assumed): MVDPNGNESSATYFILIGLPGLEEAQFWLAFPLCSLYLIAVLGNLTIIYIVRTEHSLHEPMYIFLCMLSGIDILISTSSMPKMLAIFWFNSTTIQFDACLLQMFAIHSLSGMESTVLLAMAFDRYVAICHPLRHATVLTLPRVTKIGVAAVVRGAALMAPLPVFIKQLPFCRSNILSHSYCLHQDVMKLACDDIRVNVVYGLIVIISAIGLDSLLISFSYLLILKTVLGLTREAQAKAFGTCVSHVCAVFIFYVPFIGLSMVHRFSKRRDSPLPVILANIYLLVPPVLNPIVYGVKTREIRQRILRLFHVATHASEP

[2] = test system: T2, OR11A1 or OR2M3 olfactory receptor; test: Geonol olfactory receptor antagonist cell-based inhibitory dose-response assay; parameters: species or system human; conditions: Table 2; geonol induced receptor activity, geonol at EC50
T2 construct: fused on or other part: Possibly N-terminal FLAG, Rho and/or Lucy tags

human sensory panel = test: Sensory evaluation of geonol earthy/moss odor in binary mixtures with antagonists; assay type: in vivo; conditions: percentage of geonol malodor (earthy/moss odor) remaining in binary iso-intense mixture vs REF; * = statistically different from geonol alone
From the text: Sensory Evaluation: Five 16 oz glass jars containing either REF (geonol only), geonol only control, antagonist only, mixture of geonol and isointense antagonist, or mixture of geonol and low intensity antagonist were presented to the panelists (last four samples were randomized across panelists). The panelists were asked to familiarize themselves with the earthy/moss odor quality from the REF jar first, then rate the pleasantness, earthy/moss odor intensity and overall odor intensity of the next four samples on a 0-10 linear scale. The inter-stimulus interval between the samples was two minutes to avoid adaptation.

[3] = Table 4, butyric acid at single activating concentration (EC94)
[4] = Table 5, agonist concentration not given
[5] = Table 5, butyric acid olfactory receptor antagonists, agonist concentration not given

IC50 [1, 3] | Inhibition (%) ([1]; Table 4, butyric acid at EC94) | Compound | further results
170 µM | – | CC(=O)O[C@H]([C@H]1CCCC[C@@H]1C)C(C)(C)C (racemic) [[(1~{R})-2,2-dimethyl-1-[(1~{S},2~{S})-2-methylcyclohexyl]propyl] acetate] | –
76.9 µM | 54% | C[C@H]1CCCC2(CCCC[C@@H]2C)[C@@H]1O (single isomer, unassigned) [(4~{S},5~{R},6~{S},11~{S})-4,11-dimethylspiro[5.5]undecan-5-ol] | –
75.7 µM | 37% | C=C1C(C)(C)CCCC12CC1(C)OC1(C)C2 (stereo not drawn) [1,1′,1′,5-tetramethyl-2′-methylidenespiro[6-oxabicyclo[3.1.0]hexane-3,3′-cyclohexane]] | –
– | – | CC(=O)C1(C)CC(C)C23CCC(CC12)C3 (stereo not drawn) [1-(2,4-dimethyl-4-tricyclo[5.2.1.0^{1,5}]decanyl)ethanone] | Inhibition (%) [1, 4]: 26%; IC50 [1, 5]: 60.5 µM
– | – | CC(=O)OC(C)C1(C)CC(C)C23CCC(CC12)C3 (stereo not drawn) [1-(2,4-dimethyl-4-tricyclo[5.2.1.0^{1,5}]decanyl)ethyl acetate] | Inhibition (%) [1, 4]: 34%; IC50 [1, 5]: 54.8 µM
321 µM | 31% | CC1C=CCC(C)C1C(O)C(C)(C)C (stereo not drawn) [1-(2,6-dimethylcyclohex-3-en-1-yl)-2,2-dimethylpropan-1-ol] | –
– | – | CC(=O)OC(C)C1CC(C)C23CCC(CC12)C3 (stereo not drawn) [1-(2-methyl-4-tricyclo[5.2.1.0^{1,5}]decanyl)ethyl acetate] | Inhibition (%) [1, 4]: 23%; IC50 [1, 5]: 97 µM
– | – | CC(=O)[C@@]1(C)C(C)[C@H](C)[C@@]23CC[C@H](CC12)C3 (stereo partly drawn) [1-[(1~{S},2~{S},4~{S},7~{R})-2,3,4-trimethyl-4-tricyclo[5.2.1.0^{1,5}]decanyl]ethanone] | IC50 [1, 5]: 32.6 µM
100 µM | 61% | C=CCC1(OC)C(C)CCCC1C (stereo not drawn) [1-methoxy-2,6-dimethyl-1-prop-2-enylcyclohexane] | –
35.1 µM | 119% | C=C(C)CC1(CC(=C)C)CCC(C)(C)C1O (stereo not drawn) [2,2-dimethyl-5,5-bis(2-methylprop-2-enyl)cyclopentan-1-ol] | –
51.7 µM | 82% | C=C(C)CC1(CC(=C)C)CCC(C)(C)C1=O [2,2-dimethyl-5,5-bis(2-methylprop-2-enyl)cyclopentan-1-one] | –
125 µM | 110% | C=C(C)CC1(CC(=C)C)CCCC(C)(C)C1O (stereo not drawn) [2,2-dimethyl-6,6-bis(2-methylprop-2-enyl)cyclohexan-1-ol] | –
46.6 µM | 103% | C=C(C)CC1(CC(=C)C)CCCC(C)(C)C1=O [2,2-dimethyl-6,6-bis(2-methylprop-2-enyl)cyclohexan-1-one] | –
– | – | CC1C(C)C23CCC(CC2C1(C)C=O)C3 (stereo not drawn) [2,3,4-trimethyltricyclo[5.2.1.0^{1,5}]decane-4-carbaldehyde] | Inhibition (%) [1, 4]: 28%; IC50 [1, 5]: 270 µM
198 µM | 10% | CC1=C(C)CC2(CCC(C)(C)C2=O)C1 [2,3,8,8-tetramethylspiro[4.4]non-2-en-9-one] | –
78.7 µM | 16% | CC1=C(C)CC2(CCCC(C)(C)C2O)C1 (stereo not drawn) [2,3,9,9-tetramethylspiro[4.5]dec-2-en-10-ol] | –
120 µM | 12% | CC1CC2(CCCC(C)(C)C2O)CC1C (stereo not drawn) [2,3,9,9-tetramethylspiro[4.5]decan-10-ol] | –
81.6 µM | 22% | CC1=CC(C)C2(CCCC(C)(C)C2O)C1 (stereo not drawn) [2,4,9,9-tetramethylspiro[4.5]dec-2-en-10-ol] | –
110 µM | 63% | CC1=CC(C)C2(CCCC(C)(C)C2=O)C1 (stereo not drawn) [2,4,9,9-tetramethylspiro[4.5]dec-2-en-10-one] | –
76.4 µM | 115% | C=CCC1(C(C)C=C)CCCC(C)(C)C1=O (stereo not drawn) [2-but-3-en-2-yl-6,6-dimethyl-2-prop-2-enylcyclohexan-1-one] | –
366 µM | 144% | CC1=CCC2(CCCCC2O)C(C(C)C)C1 (stereo not drawn) [3-methyl-5-propan-2-ylspiro[5.5]undec-2-en-11-ol] | –
268 µM | 102% | CC1C=CCC12CCCC(C)(C)C2=O (stereo not drawn) [4,9,9-trimethylspiro[4.5]dec-2-en-10-one] | –
337 µM | 105% | COC1C(C)(C)CCC12CCCC2 (stereo not drawn) [4-methoxy-3,3-dimethylspiro[4.4]nonane] | –
44.1 µM | 91% | CC1(C)CCCC2(CC=CC2)C1O (stereo not drawn) [9,9-dimethylspiro[4.5]dec-2-en-10-ol] | –
135 µM | 23% | CC1(C)CCCC2(CC=CC2)C1=O [9,9-dimethylspiro[4.5]dec-2-en-10-one] | –

IC50 [1, 3] | Inhibition (%) ([1]; Table 4, butyric acid at EC94) | Compound | further results
238 µM | 100% | COC1C(C)(C)CCC12CC=CC2 (stereo not drawn) [9-methoxy-8,8-dimethylspiro[4.4]non-2-ene] | –
120 µM | 33% | COC1C(C)(C)CCCC12CC=CC2 (stereo not drawn) [10-methoxy-9,9-dimethylspiro[4.5]dec-2-ene] | –
68.8 µM | 52% | CC1CCCCC12CCCCC2O (stereo not drawn) [11-methylspiro[5.5]undecan-5-ol] | –
72.3 µM | 72% | CC(=O)OC1C(C)(C)CCCC12C(C)C=CCC2C (stereo not drawn) [(1,5,10,10-tetramethylspiro[5.5]undec-3-en-11-yl) acetate] | –
425 µM | 39% | CC(=O)OC1C(C)(C)CCCC12CC(C)(C)C(C)(C)C2 (stereo not drawn) [(2,2,3,3,9,9-hexamethylspiro[4.5]decan-10-yl) acetate] | –
– | – | CC(=O)OCC1(C)C(C)C(C)C23CCC(CC12)C3 (stereo not drawn) [(2,3,4-trimethyl-4-tricyclo[5.2.1.0^{1,5}]decanyl)methyl acetate] | Inhibition (%) [1, 4]: 27%; IC50 [1, 5]: 60.8 µM
> 600 µM | 116% | CC(=O)OC1C(C)(C)CCCC12CC(C)=C(C)C2 (stereo not drawn) [(2,3,9,9-tetramethylspiro[4.5]dec-2-en-10-yl) acetate] | –
25.9 µM | 69% | CC1=C(C)CC2(CCCC(C)(C)C2OC=O)C1 (stereo not drawn) [(2,3,9,9-tetramethylspiro[4.5]dec-2-en-10-yl) formate] | –
51.4 µM | 62% | CC(=O)OC1C(C)(C)CCCC12CC(C)C(C)C2 (stereo not drawn) [(2,3,9,9-tetramethylspiro[4.5]decan-10-yl) acetate] | –
34.8 µM | 131% | CC(=O)OC1C(C)(C)CCCC12CC(C)=CC2C (stereo not drawn) [(2,4,9,9-tetramethylspiro[4.5]dec-2-en-10-yl) acetate] | –
71.4 µM | 104% | CC(=O)OC1C(C)(C)CCCC12CC=C(C)CC2C (stereo not drawn) [(3,5,10,10-tetramethylspiro[5.5]undec-2-en-11-yl) acetate] | –
48.5 µM | 106% | CC(=O)OC1C(C)(C)CCCC12CC=CC2C (stereo not drawn) [(4,9,9-trimethylspiro[4.5]dec-2-en-10-yl) acetate] | –
44.4 µM | 129% | CC1CC=CCC12CCCC(C)(C)C2OC=O (stereo not drawn) [(5,10,10-trimethylspiro[5.5]undec-2-en-11-yl) formate] | –
488 µM | 107% | CC(=O)OC1C(C)(C)CCC12CC=CC2 (stereo not drawn) [(8,8-dimethylspiro[4.4]non-2-en-9-yl) acetate] | –
90.3 µM | 32% | CC(=O)OC1C(C)(C)CCCC12CC=CC2 (stereo not drawn) [(9,9-dimethylspiro[4.5]dec-2-en-10-yl) acetate] | –
52.6 µM | 89% | CC(=O)OC(C1C(C)C=C(C)CC1C)C(C)(C)C (stereo not drawn) [[2,2-dimethyl-1-(2,4,6-trimethylcyclohex-3-en-l-yl)propyl] acetate] | –
242 µM | 101% | CC(=O)OC(C1C(C)CC(C)CC1C)C(C)(C)C (stereo not drawn) [[2,2-dimethyl-1-(2,4,6-trimethylcyclohexyl)propyl] acetate] | –
– | – | CCCCCC/C=C/C=O [nonylenic aldehyde] | % Inhibition [2]: 30%
– | – | CC(=O)OCCc1ccccc1 [phenyl ethyl acetate] | % Remaining in human sensory tests (human sensory panel): 47* %
– | – | OCCc1ccccc1 [phenylethylol] | % Remaining in human sensory tests (human sensory panel): 58%
– | – | CC(=NO)C1(C)C(C)C(C)[C@]23CC[C@H](CC12)C3 (stereo partly drawn) [~{N}-[1-[(1~{R},7~{R})-2,3,4-trimethyl-4-tricyclo[5.2.1.0^{1,5}]decanyl]ethylidene]hydroxylamine] | IC50 [1, 5]: 79.7 µM
– | – | CC(=NO)C1C(C)C(C)C23CCC(CC12)C3 (stereo not drawn) [~{N}-[1-[(1~{S},7~{R})-2,3-dimethyl-4-tricyclo[5.2.1.0^{1,5}]decanyl]ethylidene]hydroxylamine] | Inhibition (%) [1, 4]: 19%; IC50 [1, 5]: 76.6 µM
– | – | CC1CC(C)(C=NO)C2C[C@H]3CC[C@]12C3 (stereo partly drawn) [~{N}-[[(1~{S},7~{R})-2,4-dimethyl-4-tricyclo[5.2.1.0^{1,5}]decanyl]methylidene]hydroxylamine] | IC50 [1, 5]: 88.5 µM
– | – | isopropyl quinoline | % Remaining in human sensory tests (human sensory panel): 110%
